US10201530B2, “Treatment of BRCA1-defective cancer or resistant cancers” (City of Hope, priority 2014, dated 2019)

Assays:
[1] = test system: A2780; experiment: Cytotoxicity, A2780 cells; type: cell-based, human; settings: Homo sapiens; A2780, cisplatin-sensitive ovarian cells; read-out: IC50, mean ± SEM
Description: (§1) All cell lines were acquired from the American Type Culture Collection (Manassas, Va., USA). Cells were maintained in RPMI 1640 medium (Mediatech) with 10% fetal bovine serum, 2 mM glutamine, and 100 U of penicillin and 100 μg of streptomycin per ml of medium (Sigma) at 37° C. in 5% CO2. To isolate HCC1437+BRCA1 cells, parental HCC1937 cells were transfected with pcDNA3.1 plasmid expressing full-length BRCA1 cDNA. Stable transfectant clones were selected and used for drug sensitivity assays. For stable transfection, cells at 30-40% confluence were incubated overnight with […] of plasmid DNA, using FUGENE® 6 transfectin reagent (Roche Molecular Biochemical, Monza, Italy) according to the manufacturer's instructions. Cells were then selected in puromycin (1 μg/ml) (Invitrogen life Technologies, La Jolla, Calif., USA.) After 20 to 30 days, viable puromycin-resistant colonies from HCC1937 transfections were expanded and screened. The clones that stably expressed […] and retained growth potential were assayed for BRCA1 expression by Western blot analysis. By Western blot analysis, we evaluated the restoration of BRCA1 expression in the puromycin-resistant cDNA/transfectant cells.
(§2) The MTT cytotoxicity assay was performed by incubating with MTT and monitoring the MTT formazan formed by viable cells with a microplate reader at a wavelength of 560 nm; the survival, ratio was determined using the formula: (Atest−Ablank)/(Acontrol−Ablank)×100%. The cytotoxicity was determined in 96-well plates using the semiautomatic fluorescence-based Digital Imaging Microscopy System (DIMSCAN). DIMSCAN uses digital imaging microscopy to quantify viable cells, which selectively accumulate FDA (fluorescein diacetate; Alfa Aesar, Ward Hill, Mass.). DIMSCAN is capable of measuring cytotoxicity over a 4 log dynamic range by quantifying total fluorescence per well (which is proportional to the number of viable cells) after elimination of the background fluorescence by digital thresholding and eosin Y (Mallinckrodt Baker, Center Valley, Pa.) quenching. Cells were seeded into 96-well plates in 100 μL of complete medium at 2,000 to 5,000 cells per well depending on cell line growth rate. After overnight incubation, test compound was added to each well at various concentrations in 50 μL of culture medium. After incubation with the drugs for 96 hours at 37° C., FDA (final concentration: […]) and eosin Y [final concentration: 0.1% (w/v)] were added to each well and the cells were incubated for an additional 20 minutes at 37° C. Total fluorescence per well was then measured using DIMSCAN, and the results were expressed as the ratio of the fluorescence in treated wells to the fluorescence in untreated wells (survival fraction).

[2] = test system: MDA-MB-231; experiment: Cytotoxicity, MDA-MB-231 cells; type: cell-based, human; settings: Homo sapiens; MDA-MB-231, TNBC; read-out: IC50, mean ± SEM
Description: as §1, §2

[3] = target: T1, PARP1 (Homo sapiens, UniProt P09874); experiment: PARP1 activity in lysates of treated cells (chemiluminescent assay kit); type: cell-based
T1 construct: endogenous in cells; host or cells: HCC1937, HCC1937+BRCA1, UWB1.289, UWB1.289+BRCA1 (human breast / ovarian cancer lines)
Description: The PARP1 activity was determined using the PARP1 Chemiluminscent Assay Kit (BPS Bioscience, San Diego) according to the manufacturer's protocol. Briefly, the ribosylation reaction was carried out with activated DNA in PARP assay buffer using test inhibitor, positive control, substrate control and blank reactions, for 1 hour at 25° C. Detection was by streptavidin-HRP with chemiluminescent substrate A and B read in a luminometer.

[4] = test system: PARP1 protein; experiment: PARP1 protein level by Western blot; type: cell-based, human
Description: For subcellular fractionation, cells were trypsinized and washed with cold PBS solution twice. […] Following centrifugation at 1,000 g for 5 min, the supernatant was collected (i.e., cytoplasmic fraction) and pellets were washed with the same buffer twice. The washed samples were extracted for 40 min on ice with fractionation buffer containing 0.5% NP-40 for nuclear fraction. All the samples were sonicated and clarified by centrifugation at 16,000 g for 15 min. Protein concentrations of all fractions were determined with Bio-Rad Protein Assay (Bio-Rad Laboratories, Hercules, Calif.). Immunoblotting was performed as described previously (21,22). Briefly, equal amounts of boiled protein samples were subjected to SDS-polyacrylamide gel electrophoresis (PAGE) and transferred onto nitrocellulose membranes (Bio-Rad Laboratories). Membranes were blocked for 1 hour in 3% BSA in Tris buffered saline containing 0.05% Tween 20 (TBST) and incubated for 1 hour with primary antibody (1:500 or 1:1000) diluted in TBST containing 1% BSA. After two washes with TBST, membranes were incubated for 1 hour with horseradish peroxidase-conjugated secondary Abs (1:3000 dilution) at room temperature. The immunoblots were visualized on film with the West-Q chemi-luminescence kit (GenDEPOT, Barker, Tex.).

[5] = target: RR (Homo sapiens, UniProt P31350); settings: previously reported, ref (6); cited from earlier work
Chain of RR (P31350 whole entry): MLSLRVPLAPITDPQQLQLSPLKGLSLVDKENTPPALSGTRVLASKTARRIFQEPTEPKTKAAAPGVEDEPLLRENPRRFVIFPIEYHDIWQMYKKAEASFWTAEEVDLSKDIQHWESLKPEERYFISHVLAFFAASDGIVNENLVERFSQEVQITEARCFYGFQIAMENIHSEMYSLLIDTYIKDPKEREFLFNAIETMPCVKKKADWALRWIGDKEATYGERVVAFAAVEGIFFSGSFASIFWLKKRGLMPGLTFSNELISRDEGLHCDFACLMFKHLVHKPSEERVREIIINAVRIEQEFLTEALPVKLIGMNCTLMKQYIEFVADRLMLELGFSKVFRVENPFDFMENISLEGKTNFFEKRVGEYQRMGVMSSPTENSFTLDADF

T1 sequence (P09874 whole entry): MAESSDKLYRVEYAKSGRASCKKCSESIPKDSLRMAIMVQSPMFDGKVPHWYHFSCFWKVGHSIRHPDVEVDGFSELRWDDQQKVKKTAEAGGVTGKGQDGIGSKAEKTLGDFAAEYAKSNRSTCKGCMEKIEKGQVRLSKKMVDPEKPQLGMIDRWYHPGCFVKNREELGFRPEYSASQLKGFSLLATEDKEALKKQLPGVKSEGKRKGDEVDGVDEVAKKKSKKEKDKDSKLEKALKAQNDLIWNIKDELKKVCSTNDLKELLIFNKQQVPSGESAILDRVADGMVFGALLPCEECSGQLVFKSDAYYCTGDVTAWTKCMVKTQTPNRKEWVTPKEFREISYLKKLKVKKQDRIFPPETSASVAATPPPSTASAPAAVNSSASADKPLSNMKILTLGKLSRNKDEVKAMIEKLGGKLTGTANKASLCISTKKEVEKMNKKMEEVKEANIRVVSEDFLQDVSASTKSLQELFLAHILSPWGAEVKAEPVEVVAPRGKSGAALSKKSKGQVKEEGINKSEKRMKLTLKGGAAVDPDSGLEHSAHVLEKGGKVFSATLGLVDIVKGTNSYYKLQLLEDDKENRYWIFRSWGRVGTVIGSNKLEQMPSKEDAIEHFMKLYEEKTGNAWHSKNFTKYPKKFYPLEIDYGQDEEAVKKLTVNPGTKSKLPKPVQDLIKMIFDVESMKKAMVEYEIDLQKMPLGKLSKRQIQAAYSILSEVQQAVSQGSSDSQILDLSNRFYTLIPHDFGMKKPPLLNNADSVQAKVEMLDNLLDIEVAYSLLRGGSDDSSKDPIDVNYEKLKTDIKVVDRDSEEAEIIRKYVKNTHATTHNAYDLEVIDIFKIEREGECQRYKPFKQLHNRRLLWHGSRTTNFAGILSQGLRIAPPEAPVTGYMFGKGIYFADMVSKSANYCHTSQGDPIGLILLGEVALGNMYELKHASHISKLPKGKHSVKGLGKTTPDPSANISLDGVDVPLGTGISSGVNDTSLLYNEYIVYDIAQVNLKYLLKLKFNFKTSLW

PARP1 activity, treated cells ([3]; HCC1937+BRCA1, 24 h, untreated 2336878 cps): 2041097 cps
PARP1 activity, treated cells ([3]; HCC1937, 24 h, untreated 726177 cps): 427851 cps
PARP1 activity, treated cells ([3]; UWB1.289+BRCA1, 8 h, untreated printed 145769 cps): 2129944 cps
PARP1 activity, treated cells ([3]; UWB1.289, 8 h, untreated printed 113559 cps): 774611 cps
SMILES: O=C(Nc1nc(-c2ccc(O)c(O)c2)c(-c2ccccc2)s1)c1ccc(O)c(O)c1 [COH29]
IC50 [1]: 4.67 ± 1.64 µM
IC50 [2]: 9.7 ± 1.52 µM
effect on PARP1 protein level ([4]; HCC1937 BRCA1-defective cells, 24 h): attenuated PARP1 protein
effect on PARP1 protein level ([4]; HCC1937 cells irrespective of BRCA1 status, 4 h treatment): Little reduction
effect of RR inhibition on dNTP [5]: causes dNTP depletion in vivo
